{"source": "patent US11510908B2", "about": "“Protein translation inhibitors and uses thereof” (University of Maryland, Baltimore, priority 2019, dated 2022)", "key": {"hnRNP A18 RRM": {"target": "T1, hnRNP A18 RRM (Homo sapiens, UniProt Q14011)", "T1 construct": "A18 RNA recognition motif (residues 1-92 of hnRNP A18 wildtype) was expressed and purified; 6x-His (N, cleaved yes); protein G B1 domain (GB1) (N, cleaved yes); made in house; host or cells: E. coli BLD21(DE3) (so in the source)", "experiment": "NMR HSQC/TROSY chemical shift perturbation screen", "format": "binding", "conditions": "150 μM hnRNP A18, excess compound, 298 K", "protocol": "The hnRNP A18 RRM samples used for compound screening via high field NMR spectroscopy using a series of single-quantum coherence (HSQC) experiments contained 0.1 to 0.2 mM ^15N-labeled hnRNP A18 RRM, ultrapure water, 10% D2O, 5% d6-DMSO and up to 5 mM of each of the forty compounds tested, as based on their solubility. All of the HSQC data were collected at 25° C. with a Bruker Avance 800 US2 NMR spectrometer (800.27 MHz, ^1H) equipped with pulsed-field gradients, four frequency channels, an automatic sample changer, and a TXI cryogenic probe. Backbone resonance assignments in the presence of compounds were achieved via compound titrations and monitoring chemical shift changes until solubility limits were reached (<5 mM compound). Data were processed with NMRPipe (35), and proton chemical shifts and their perturbations upon binding the various compounds were reported with respect to the H2O or HDO signal taken as 4.698 ppm relative to external TSP (0.0 ppm)."}, "hnRNP A18 [1]": {"target": "T2, hnRNP A18 (Homo sapiens, UniProt Q14011)", "T2 sequence (Q14011 1-172)": "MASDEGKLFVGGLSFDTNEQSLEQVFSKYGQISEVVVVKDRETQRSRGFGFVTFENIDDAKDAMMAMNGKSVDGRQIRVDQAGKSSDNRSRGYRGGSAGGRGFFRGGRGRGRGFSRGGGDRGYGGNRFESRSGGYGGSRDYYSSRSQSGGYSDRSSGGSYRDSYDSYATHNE", "experiment": "Fluorescence anisotropy competition binding of hnRNP A18 to fluorescein tagged RNA motif 1", "parameters": "recombinant full length His-hnRNP A18 incubated with biotinylated hnRNP A18 RNA motif 1", "conditions": "25° C., 30 min, read-out: IC50, inhibition of hnRNP A18 binding to its cognate RNA", "protocol": "Quantitative assessments of hnRNP A18-RNA binding equilibria were performed using fluorescence anisotropy essentially as described (36). Briefly, binding reactions (100 μl) were assembled as described for RNA band shift (EMSAs) but in absence of glycerol and using fluorescein labeled rather than biotin labeled RNA substrates. Reactions were incubated at 25° C. for 30 min; preliminary kinetics runs verified that equilibrium was attained within this period. Subsequently, total reaction anisotropy (At) and fluorescence intensity were measured using a Beacon 2000 Fluorescence Polarization System (Panvera) equipped with a 490-nm excitation filter and a 535-nm emission filter. Drug-dependent changes in At were analyzed by nonlinear regression using the four parameter logistic equation (Eq.1) and PRISM software (GraphPad).\nHere, APR represents the intrinsic anisotropy of the protein:RNA complex in the absence of tested compounds, AR is the anisotropy of the RNA ligand in the absence of protein, [drug] is the concentration of each tested compound, and h is the Hill slope."}, "hnRNP A18 [2]": {"target": "T2, hnRNP A18", "experiment": "RNA band shift (EMSA) with His-hnRNP A18 and biotinylated hnRNP A18 RNA motif 1", "format": "binding", "parameters": "recombinant full length His-hnRNP A18 incubated with biotinylated hnRNP A18 RNA motif 1", "conditions": "increasing concentrations of compound", "protocol": "RNA band shifts were performed according to the manufacturer recommendations (LightShift Chemiluminescent RNA EMSA kit, Thermo Scientific, Rockford, Ill.). Briefly recombinant His-hnRNP A18 or His-hnRNP A1 (1 μg) were incubated with biotinylated RNA (hnRNP A18 motif 1, IRE 28 or 51 nucleotides) in 20 μl and run on native polyacrylamide gels transfer to nylon probes and hybridize with streptavidin HRP antibody."}, "[3]": {"system": "Iron Responsive Protein (IRP)", "experiment": "RNA band shift (EMSA) with Iron Responsive Protein and Iron Responsive Element (specificity)", "format": "binding", "conditions": "very high concentration, decreased specificity"}, "[4]": {"system": "normal human mammary epithelial cells (HMEC)", "experiment": "Cell viability of normal human mammary epithelial cells (Apo-Tox-Glo)", "format": "cell-based", "conditions": "24 hrs; for Effect on normal cells viability: Compounds 2 and 3 at doses as high as 150 μM", "protocol": "(§1) Cell Viability and Tumor Growth In Vivo\n(§2) Cells viability was measured on normal human mammary epithelial cells (HMEC: ATCC, Gaithersburg, Md.) grown as recommended by the manufacturer and human cancer cells including melanoma LOX-IM-VI, colon cancer RKO, Gliobalstoma D54, pancreatic cancer MiaPaca and triple negative breast cancer MDA-MD-231 cells (5) with the Apo-Tox-Glo kit (Promega, Madison, Wis.) as recommended by the manufacturer. The cells were plated (10,000 cells per well) on a 96 well plate and exposed to increasing concentration of chemical probes for 24 hrs and reacted with the viability reagent as recommended. Fluorescence was measured on a plate reader at 400 nm Ex/505 nm Em."}, "hnRNP A18 [5]": {"target": "T2, hnRNP A18", "experiment": "Cellular Engagement Thermal Shift Assay (CETSA) in LOX-IM-VI cells", "format": "cell-based", "parameters": "expressed in transfected cells; host or cells: LOX-IM-VI human melanoma cells stably transfected with hnRNP A18-GFP", "conditions": "3 hours, heat shock at Tagg(75), read-out: EC50, binding and stabilization of hnRNP A18 in cells", "protocol": "Cellular Thermal Shift Assay (CETSA)\nCellular thermal shift assay (CETSA) was performed with LOX-IM-VI hnRNP\nA18 cells cultured in RPMI medium supplemented with 10% FBS. For an initial determination of the melting profile of hnRNP A18, cells dispensed into 96-well PCR plate in the above medium (5000 cells/well/50 μl), were subjected to temperature gradient (40-60° C.) for 10 min. Cold non-denaturing lysis buffer (PBS supplemented with 0.1% TritonX-100 and 1× protease inhibitors) was added to wells, and the plate was rocked and incubated for 15 min on ice. Subsequently, centrifugation was performed at 14.000 rpm to sediment the unstable protein content. Supernatant was collected, and SDS-PAGE gel was run, and immuno-detection was performed using poly-clonal anti-hnRNP A18 antibody (Sigma, CIRP). hnRNP A18 band was quantified on LI-COR C-Digit Blot Scanner, and subsequently Tagg(50) and Tagg(75) values were calculated for hnRNP A18.\nIn a subsequent run, cells were treated at various doses (80, 40, 20, 10, 5, 2.5 and 1.25 μM) of Compound 2 (Chembridge 7646184), Compound 4 (OTAVA 219853) and Compound 5 (VITAS STK508411) together with DMSO control, for 3 hours. Cells were then subjected to heat shock at Tagg(75) for 10 min, and unstable protein was removed by centrifugation step. Following an immuno-blotting step, bands of stable hnRNP A18 protein was quantified, normalized to loading control and plotted using GraphPad Prism software. EC50 values of Compound 2, Compound 4 and Compound 5 compounds were calculated."}, "[6]": {"experiment": "PAMPA (parallel artificial membrane permeability assay)", "format": "in vitro ADME", "conditions": "measured at pH 5.0 and 6.8, room temperature, ~4 hours, read-out: Effective permeability Pe", "protocol": "The PAMPA assay was performed by Pion (Billerica, Mass.) on 81 compounds selected out of the 264 compounds showing at least 80% similarity to Compound 1, logP<5.0, and 4DBA closer to 0 (>−4.9). The compounds were dissolved at 10 mM in Dimethyl sulfoxide (DMSO, spectrophotometric grade) and filtered (0.2 μm pore size, hyrodophylic PVDF). The assays were carried in the PAMPA STIRWELL plates (lot A0440) and measured at pH 5.0 and 6.8 at room temperature for ˜4 hours on a PAMPA EVOLUTION instrument."}, "[7]": {"system": "melanoma LOX-IM-VI, colon cancer RKO, Glioblastoma D54, pancreatic cancer MiaPaca, MDA-MD-231 cells", "experiment": "Cell viability of human cancer cells (Apo-Tox-Glo)", "format": "cell-based", "conditions": "24 hrs, increasing concentration", "protocol": "as §1, §2"}, "[8]": {"system": "hnRNP A18 targeted 3'UTR (Trx)", "experiment": "CAT-Trx 3'UTR reporter assay (CAT ELISA) in LOX-IM VI cells", "format": "cell-based, human", "conditions": "increasing amounts of drugs, next day", "protocol": "CAT-ELISA was performed as recommended by the manufacturer (Sigma-Aldrich). Briefly, human melanoma LOX-IM VI cells stably transfected with hnRNP A18-GFP (9) were transiently transfected with a CAT reporter vector harboring Trx 3′UTR (16). Twenty-four hours later the cells were distributed in 6 well plates and treated with increasing amounts of drugs. The next day, the cells were washed, and protein extracted. […] Cleavage of the substrate catalyzed by the peroxidase enzyme was measured on a plate reader at 405 nm.\nIn order to determine whether hnRNP A18 binding to these compounds disrupted its cellular functions, a cell-based assay was developed as a read out for hnRNP A18 RNA binding activity. A reporter vector harboring a hnRNP A18 targeted 3′UTR (Trx; (16)) downstream of a CAT gene was engineered. Binding of hnRNP A18 to the targeted 3′UTR is expected to stabilize the CAT transcript and increase CAT protein production, which is then measured by ELISA."}, "Aqueous solubility": {"experiment": "Aqueous solubility", "format": "physicochemical"}}, "data": [{"smiles": "Cc1nc(NC(=O)c2ccccc2)sc1-c1csc(Nc2ccc(O)c(C(=O)O)c2)n1", "note": "[Compound 1]", "values": [{"measurement": "Chemical shift perturbations of hnRNP A18 RRM residues", "setting": "hnRNP A18 RRM", "result": "most significant chemical shift perturbations"}, {"measurement": "IC50", "setting": "hnRNP A18 [1]", "result": 6.4, "unit": "µM"}, {"measurement": "Disruption of hnRNP A18 RNA binding activity by band shift", "setting": "hnRNP A18 [2]", "result": "out-competed hnRNP A18 RNA consensus motif"}, {"measurement": "Concentration at which binding disruption of IRP to Iron Responsive Element was observed", "setting": "[3]", "result": 5.5, "unit": "mM"}]}, {"smiles": "CC(=O)Oc1ccccc1C(=O)Nc1ccccc1Sc1ncnc2scc(-c3ccccc3)c12", "note": "[Compound 2]", "values": [{"measurement": "Effect on normal cells viability", "setting": "[4]", "result": "without affecting the viability of normal human epithelial cells"}, {"measurement": "EC50", "setting": "hnRNP A18 [5]", "result": 4.7, "unit": "µM"}, {"measurement": "IC50", "setting": "hnRNP A18 [1]", "result": 15, "unit": "µM"}, {"measurement": "Disruption of hnRNP A18 RNA binding activity by band shift", "setting": "hnRNP A18 [2]", "result": "specifically disrupt hnRNP A18 RNA binding activity"}, {"measurement": "Papp", "setting": "[6]", "result": "> 20", "unit": "×10⁻⁶ cm/s"}, {"measurement": "Effect on cancer cells viability", "setting": "[7]", "result": "killing all cancer cell lines tested"}]}, {"smiles": "CC(=O)Oc1cccc(C(=O)Nc2ccc(C(=O)Nc3nccs3)cc2)c1", "note": "[Compound 3]", "values": [{"measurement": "Effect on normal cells viability", "setting": "[4]", "result": "without affecting the viability of normal human epithelial cells"}, {"measurement": "IC50", "setting": "hnRNP A18 [1]", "result": 13, "unit": "µM"}, {"measurement": "Disruption of hnRNP A18 RNA binding activity by band shift", "setting": "hnRNP A18 [2]", "result": "specifically disrupt hnRNP A18 RNA binding activity"}, {"measurement": "Papp", "setting": "[6]", "result": "> 20", "unit": "×10⁻⁶ cm/s"}, {"measurement": "Effect on cancer cells viability", "setting": "[7]", "result": "killing all cancer cell lines tested"}]}, {"smiles": "COc1ccccc1C(=O)Nc1nc(-c2ccc(C)cc2)c(NC(C)=O)s1", "note": "[Compound 4]", "values": [{"measurement": "Effect on normal cells viability", "setting": "[4]", "result": "no significant effect on normal cells viability"}, {"measurement": "EC50", "setting": "hnRNP A18 [5]", "result": 2.7, "unit": "µM"}, {"measurement": "IC50", "setting": "hnRNP A18 [1]", "result": 39, "unit": "µM"}, {"measurement": "Disruption of hnRNP A18 RNA binding activity by band shift", "setting": "hnRNP A18 [2]", "result": "specifically disrupt hnRNP A18 RNA binding activity"}, {"measurement": "Papp", "setting": "[6]", "result": "> 20", "unit": "×10⁻⁶ cm/s"}, {"measurement": "Effect on cancer cells viability", "setting": "[7]", "result": "preferentially killing cancer cells although less efficiently than Compounds 2 and 3"}]}, {"smiles": "Cc1sc(NC(=O)c2ccccc2)nc1OC(=O)c1ccccc1", "note": "[Compound 5]", "values": [{"measurement": "Toxicity to normal cells", "setting": "[4]", "result": "20-40%"}, {"measurement": "EC50", "setting": "hnRNP A18 [5]", "result": 23.8, "unit": "µM"}, {"measurement": "IC50", "setting": "hnRNP A18 [1]", "result": 2.9, "unit": "µM"}, {"measurement": "Disruption of hnRNP A18 RNA binding activity by band shift", "setting": "hnRNP A18 [2]", "result": "specifically disrupt hnRNP A18 RNA binding activity"}, {"measurement": "Papp", "setting": "[6]", "result": "> 20", "unit": "×10⁻⁶ cm/s"}, {"measurement": "Effect on cancer cells viability", "setting": "[7]", "result": "least effective"}]}, {"smiles": "COc1cccc(C(=O)Nc2nc(-c3ccc(C)cc3)c(NC(=O)c3ccco3)s2)c1", "note": "[Compound 6]", "values": [{"measurement": "Production of CAT protein", "setting": "[8]", "result": "could only reduce CAT protein levels at the highest concentration"}, {"measurement": "Aqueous solubility", "setting": "Aqueous solubility", "result": "Low aqueous solubility"}, {"measurement": "Disruption of hnRNP A18 RNA binding activity by band shift", "setting": "hnRNP A18 [2]", "result": "specifically competed for hnRNP A18 binding activity"}]}]}
